Experimental data: ChEMBL document CHEMBL5724914, “Linking interpersonal differences in gut microbiota composition and drug biotransformation activity” (2024)

How the values were obtained:
[1] = human gut metagenome, 24 h, 2 µM
[2] = (§1) The drug is tested on WLS-038 corresponding to human gut metagenome with ENA study accession number: PRJEB37062 and ENA sample accession number: ERS12561745 for biotransformation under anaerobic condition. The drug concentrations were measured over 9 timepoints collected between 0 and 24 hours of incubation by liquid-chromatography-coupled mass spectrometry (LC–MS); details: 2 µM
[3] = human gut metagenome, 24 h, 2 µM; remark: listed apart in the source
[4] = as §1, with “Z-004” for “WLS-038”, “to” for “to human gut”, “ERS12561804” for “ERS12561745”; details: 2 µM
[5] = human gut metagenome, 24 h, 2 µM; remark: listed apart in the source
[6] = human gut metagenome, 24 h, 2 µM; remark: listed apart in the source
[7] = human gut metagenome, 24 h, 2 µM; remark: listed apart in the source
[8] = human gut metagenome, 24 h, 2 µM; remark: listed apart in the source
[9] = human gut metagenome, 24 h, 2 µM; remark: listed apart in the source
[10] = as §1, with “WLS-240” for “WLS-038”, “ERS12561773” for “ERS12561745”; details: 2 µM
[11] = human gut metagenome, 24 h, 2 µM; remark: listed apart in the source
[12] = as §1, with “WLS-077” for “WLS-038”, “ERS12561750” for “ERS12561745”; details: 2 µM
[13] = as §1, with “Z-016” for “WLS-038”, “mouse” for “human”, “ERS12561815” for “ERS12561745”; details: 2 µM
[14] = as §1, with “Z-022” for “WLS-038”, “mouse” for “human”, “ERS12561821” for “ERS12561745”; details: 2 µM
[15] = as §1, with “Z-003” for “WLS-038”, “pig” for “human”, “ERS12561803” for “ERS12561745”; details: 2 µM
[16] = human gut metagenome, 24 h, 2 µM; remark: listed apart in the source
[17] = human gut metagenome, 24 h, 2 µM; remark: listed apart in the source
[18] = as §1, with “Z-008” for “WLS-038”, “to” for “to human gut”, “ERS12561808” for “ERS12561745”; details: 2 µM
[19] = as §1, with “Z-025” for “WLS-038”, “rabbit” for “human”, “ERS12561824” for “ERS12561745”; details: 2 µM
[20] = as §1, with “WLS-350” for “WLS-038”, “ERS12561789” for “ERS12561745”; details: 2 µM
Further: call rule not given here.

| Compound | Bacterial Biotransformation [1] | Bacterial Biotransformation [2] | Bacterial Biotransformation [3] | Bacterial Biotransformation [4] | Bacterial Biotransformation [5] | Bacterial Biotransformation [6] | Bacterial Biotransformation [7] | Bacterial Biotransformation [8] | Bacterial Biotransformation [9] | Bacterial Biotransformation [10] | Bacterial Biotransformation [11] | Bacterial Biotransformation [12] | Bacterial Biotransformation [13] | Bacterial Biotransformation [14] | Bacterial Biotransformation [15] | Bacterial Biotransformation [16] | Bacterial Biotransformation [17] | Bacterial Biotransformation [18] | Bacterial Biotransformation [19] | Bacterial Biotransformation [20] |
| --- | --- | --- | --- | --- | --- | --- | --- | --- | --- | --- | --- | --- | --- | --- | --- | --- | --- | --- | --- | --- |
| CC12CC3CC(C)(C1)CC(N)(C3)C2 [MEMANTINE] | Compound NOT metabolized | Compound NOT metabolized | Compound NOT metabolized | Compound NOT metabolized | Compound NOT metabolized | Compound NOT metabolized | Compound NOT metabolized | Compound NOT metabolized | Compound NOT metabolized | Compound NOT metabolized | Compound NOT metabolized | Compound NOT metabolized | Compound NOT metabolized | Compound metabolized | Compound NOT metabolized | Compound NOT metabolized | Compound NOT metabolized | Compound NOT metabolized | Compound NOT metabolized | Compound NOT metabolized |
| Cc1cc(C)cc(OCC2CNC(=O)O2)c1 (stereo not given) [METAXALONE] | Compound metabolized | Compound metabolized | Compound metabolized | Compound NOT metabolized | Compound metabolized | Compound metabolized | Compound metabolized | Compound metabolized | Compound metabolized | Compound metabolized | Compound metabolized | Compound metabolized | Compound NOT metabolized | Compound NOT metabolized | Compound NOT metabolized | Compound NOT metabolized | Compound metabolized | Compound NOT metabolized | Compound NOT metabolized | Compound metabolized |
| COC(=O)C(c1ccccc1)C1CCCCN1 (stereo not given) [METHYLPHENIDATE] | Compound NOT metabolized | Compound NOT metabolized | Compound NOT metabolized | Compound metabolized | Compound NOT metabolized | Compound metabolized | Compound NOT metabolized | Compound NOT metabolized | Compound metabolized | Compound metabolized | Compound metabolized | Compound NOT metabolized | Compound NOT metabolized | Compound NOT metabolized | Compound metabolized | Compound NOT metabolized | Compound NOT metabolized | Compound NOT metabolized | Compound NOT metabolized | Compound NOT metabolized |
| CN1CCN2c3ccccc3Cc3ccccc3C2C1 (stereo not given) [MIANSERIN] | Compound NOT metabolized | Compound NOT metabolized | Compound NOT metabolized | Compound NOT metabolized | Compound NOT metabolized | Compound metabolized | Compound NOT metabolized | Compound metabolized | Compound metabolized | Compound NOT metabolized | Compound NOT metabolized | Compound NOT metabolized | Compound NOT metabolized | Compound metabolized | Compound metabolized | Compound metabolized | Compound NOT metabolized | Compound NOT metabolized | Compound metabolized | Compound NOT metabolized |
| CC#C[C@]1(O)CC[C@H]2[C@@H]3CCC4=CC(=O)CCC4=C3[C@@H](c3ccc(N(C)C)cc3)C[C@@]21C [MIFEPRISTONE] | Compound metabolized | Compound metabolized | Compound NOT metabolized | Compound NOT metabolized | Compound NOT metabolized | Compound metabolized | Compound metabolized | Compound metabolized | Compound NOT metabolized | Compound metabolized | Compound metabolized | Compound NOT metabolized | Compound metabolized | Compound NOT metabolized | Compound metabolized | Compound NOT metabolized | Compound NOT metabolized | Compound metabolized | Compound NOT metabolized | Compound NOT metabolized |
| CC(C)(C)NCC(O)COc1cccc2c1CC(O)C(O)C2 (stereo not given) [NADOLOL] | Compound NOT metabolized | Compound NOT metabolized | Compound NOT metabolized | Compound NOT metabolized | Compound NOT metabolized | Compound NOT metabolized | Compound NOT metabolized | Compound metabolized | Compound NOT metabolized | Compound metabolized | Compound metabolized | Compound metabolized | Compound NOT metabolized | Compound metabolized | Compound metabolized | Compound NOT metabolized | Compound NOT metabolized | Compound NOT metabolized | Compound NOT metabolized | Compound metabolized |
| CC(C)[C@H]1CC[C@H](C(=O)N[C@H](Cc2ccccc2)C(=O)O)CC1 [NATEGLINIDE] | Compound metabolized | Compound metabolized | Compound metabolized | Compound NOT metabolized | Compound metabolized | Compound metabolized | Compound metabolized | Compound metabolized | Compound metabolized | Compound metabolized | Compound metabolized | Compound metabolized | Compound metabolized | Compound NOT metabolized | Compound metabolized | Compound metabolized | Compound metabolized | Compound NOT metabolized | Compound metabolized | Compound metabolized |
| CN(C)C(=O)Oc1cccc([N+](C)(C)C)c1.[Br-] [NEOSTIGMINE BROMIDE] | Compound NOT metabolized | Compound NOT metabolized | Compound NOT metabolized | Compound NOT metabolized | Compound NOT metabolized | Compound NOT metabolized | Compound NOT metabolized | Compound NOT metabolized | Compound NOT metabolized | Compound NOT metabolized | Compound NOT metabolized | Compound NOT metabolized | Compound NOT metabolized | Compound NOT metabolized | Compound metabolized | Compound NOT metabolized | Compound NOT metabolized | Compound NOT metabolized | Compound NOT metabolized | Compound NOT metabolized |
